Entries after “also recorded” stand apart in the source; their conditions may differ.

Test [1] addresses T1, proteasomal trypsin-like activity in Jurkat T cell extract (Homo sapiens, UniProt Q99436).
T1 construct: endogenous in cells; host or cells: Jurkat T cells (whole cell extract or intact cells)
The test can be described thus: Proteasome trypsin-like activity in Jurkat T cell free extract. In kind it is biochemical. The note with it: EGCG 10 μM. How it is done:
Inhibition of the proteasome activity with cell free extracts by tea polyphenols—The whole cell extract (3.5 μg) from Jurkat T cells is incubated for 90 min at 37° C. with 20 μM of a fluorogenic peptide substrate, Suc-Leu-Leu-Val-Tyr-AMC (for the chymotrypsin-like activity), Z-Leu-Leu-Glu-AMC [peptidyl-glutamyl peptide-hydrolyzing (PGPH) activity; Calbiochem], and Z-Gly-Gly-Arg-AMC (for the trypsin-like activity; Bachem), in 100 μl of the assay buffer with or without 10 μM EGCG or EGC. The hydrolyzed AMCs are quantified as described above.

The target in test [2] is T2, chymotrypsin-like activity in living breast (MCF7) cancer cells (Homo sapiens, UniProt P28074).
T2 construct: endogenous in cells; host or cells: MCF7 cells (intact)
The test can be described thus: Proteasome chymotrypsin-like activity in living MCF7 cells. It counts as cell-based. How it is done:
FIG. 16(A) The fluorogenic calpain I peptide substrate Suc-Leu-Tyr-AMC (S; 40 μM) is incubated with either a purified calpain I (P; 3 μg) or buffer (Buff) at 30° C. for 30 min with or without 10 μM calpeptin, EGCG or EGC, followed by measuring AMCs (the product), as described in the text. (B) T1 or T2 cells are treated with LLL at either 10 (A-C) or 50 μM (D, E), followed by Western blotting with indicated antibodies.(C) MCF-7 cells, pre-incubated with EGCG at an indicated concentration for 12 h, are incubation for additional 12 h with 20 μM Suc-Leu-Leu-Val-Tyr-AMC (the peptide substrate for the proteasomal chymotryptic activity), followed by measurement of AMCs in medium (as described in the grant and the manuscript). (D) Cell cycle-dependent p27 degradation. PCI-13 head and neck tumor cells are treated with aphidicolin (5 μg/ml) for 24 h (0 h), followed by release for up to 24 h. […]
(b) The peptide substrate for the proteasomal chymotrypsin-like activity, Suc-Leu-Leu-Val-Tyr-AMC, is used to measure the proteasome activity in intact Jurkat, MCF-7 and PC-3 cells, which is inhibitable by co-incubation with EGCG (FIG. 16C). […] After that, medium is collected and the liberated AMCs in the medium are measured by fluorometer to measure in vivo potency and selectivity of tea polyphenols.

The target in test [3] is T3, chymotrypsin-like activity in living prostate (PC-3) cancer cells (Homo sapiens, UniProt P28074).
T3 construct: endogenous in cells; host or cells: PC-3 cells (intact)
The test can be described thus: Proteasome chymotrypsin-like activity in living PC-3 cells. In kind it is cell-based. How it is done:
Inhibition of the proteasome activity in living cells by tea polyphenols—To measure inhibition of the chymotrypsin-like activity in living tumor cells, Jurkat T (1×10^5 cells/ml/well), MCF7 or PC-3 cells (1×10^4 cells/ml/well) are cultured in 24-well plates. These cells are first incubated for 12 h with various concentrations of EGCG, EGC, β-lactone or LLnL, followed by an additional 2 h-incubation with fluorogenic peptide substrates, Suc-Leu-Leu-Val-Tyr-AMC for the chymotrypsin-like activity and Z-Gly-Gly-Arg-AMC for the trypsin-like activity. After that, cell medium (200 μl per sample) is collected and used for measurement of free AMCs.
(b) The peptide substrate for the proteasomal chymotrypsin-like activity, Suc-Leu-Leu-Val-Tyr-AMC, is used to measure the proteasome activity in intact Jurkat, MCF-7 and PC-3 cells, which is inhibitable by co-incubation with EGCG (FIG. 16C). A similar assay is performed to measure potency and selectivity of EGCG (vs. EGC) or ECG (vs. EC) in the selected cell lines. […] After that, medium is collected and the liberated AMCs in the medium are measured by fluorometer to measure in vivo potency and selectivity of tea polyphenols.

In another test the test system is p27 in MCF-7 tumors. The test can be described thus: Nude mice bearing human breast MCF-7 tumors, biochemical end points. The settings on record: mice pre-fed or injected into the tumors. In kind it is in vivo. The text has this:
Treatment of drinking water with green tea, a green tea polyphenol extract or EGCG, or direct injection into tumors of a solution containing a green tea polyphenol extract or EGCG, inhibits breast or other tumor growth in nude mice. In (a) it is shown that antitumor activity of tea polyphenols correlates to their potency to inhibit the proteasome activity. All mice receive a 90-day slow-release subcutaneous (s.c.) estrogen pellet (Innovative Research) in the anterior flank 7 days before tumor inoculation. In Experiment 1, mice (5 per group) are pre-fed with a solution of EGCG, EGC, ECG, EC, a green tea extract (1, 10, and 50 mg/kg) or water three times per week for 2 weeks, followed by s.c. implanting human breast MCF-7 tumor cells in nude mice above the right and left flanks (10^7 cells per flank). When tumors in the control group reach ˜1000 mm^3 the experiment is terminated. […] Evaluation of the antitumor activity of tea polyphenols is determined by measuring the change in tumor size of the treated group compared to the control group. […] Levels of p27 and Bax protein in tumor tissues are measured by Western blotting and immunohistochemistry. […] Bax localization (by immunohistochemistry), processing of caspase-3, cleavage of PARP (by Western blotting) and apoptosis (by TUNEL) are then measured. […]

For the compound `O=C(O[C@@H]1Cc2c(O)cc(O)cc2O[C@@H]1c1cc(O)c(O)c(O)c1)c1cc(O)c(O)c(O)c1` [EGCG, (−)-epigallocatechin-3-gallate], in test [1], the “effect on proteasomal trypsin-like activity (in words)” value was “does not affect”. In addition, the “inhibition of chymotrypsin-like activity in living MCF7 cells (in words)” value in test [2] is on record as “inhibitable; also recorded: inhibits”. Further, in test [3], the “inhibition of chymotrypsin-like activity in living PC-3 cells (in words)” value is reported as “inhibitable; also recorded: inhibits”. Also, the “p27 levels in tumors” value in the test on p27 in MCF-7 tumors is “Increased p27 levels”.

These data come from patent publication US6713506B2, “Tea polyphenol esters and analogs thereof for cancer prevention and treatment” (University of South Florida, priority 2000, dated 2004).
